# Experimental data: a melting point compilation (Tetko et al.; mined from patent text by program, amines drawn as free bases though some values may be those of a salt)
row,SMILES,melting point
1,O=C(O)c1cn(C2CC2)c2nc(-c3cc4c(s3)CCC/C4=N\O)c(F)cc2c1=O,> 300 °C
2,CS(=O)(=O)On1nnc2ccccc2c1=O,132 to 134 °C
3,O=C1c2ccccc2C(=O)c2c1nc1c(Cl)cccn21,> 300 °C
4,Cc1c(NC(=O)c2ccc(-c3ccc(F)cc3)nc2)ccc2cc(CN3CCCC3)cnc12,207 to 209 °C
5,CCOC(=O)/C(=C/c1coc2cc(OC)ccc2c1=O)Cc1cc2c(cc1OC)OCO2,140 to 141 °C
6,CCCCCCCCCCCCCCCCOCCSCCOC(=O)N(Cc1ccccn1)C(C)=O,41 to 44 °C
7,CCN(CC)C(=O)c1cc(-c2ccc(Cl)cc2)nc2ccc(Cl)cc12,130 °C
8,O=C(O)Cc1ccc(-n2cc(Cl)cn2)cc1,176 to 178 °C
9,CCC(=O)Oc1ccc(-c2oc3cc(OC)cc(OC(=O)CC)c3c(=O)c2OC)cc1OC,106 to 107 °C
10,Cc1cn(C2CC(O)C(COC(=O)Oc3ccc([N+](=O)[O-])cc3)O2)c(=O)[nH]c1=O (stereo unspecified),145 to 146 °C
11,Nc1ccc(I)cc1C=O,105 °C
12,COc1c(CS(C)(=O)=O)cnc2ccccc12,151 to 154 °C
13,O=C(Nc1ccc(Cl)cn1)c1cc(Cl)ccc1NCC1CCN(C2CCCCCC2)CC1,170 to 172 °C
14,Cc1c(-c2ccc(O)cc2O)c(=O)oc2cc(O)ccc12,282 to 283 °C
15,Cc1cc2cc(CN3CCCCCC3)cnc2cc1NC(=O)c1ccc(-c2ccc(Cl)cc2)cc1F,209 °C
16,Cc1ccc(-n2c(=O)nc(N(C)C)n(C)c2=O)cc1C,189 to 191 °C
17,CC1CCc2cccc3c2N1C(=O)C3=O (stereo unspecified),241 to 243 °C
18,O=S1(=O)CCN(c2nc3c(-c4nc(C5CC5)no4)ncn3c3ccccc23)CC1,328 to 335 °C
19,CC(C)c1ccc(-n2cc(C#N)cc2N)c(Br)c1,106 °C
20,Oc1cc2[nH]c3c(O)c(O)cc(Br)c3c2cc1O,> 260 °C
21,N#Cc1c(-c2ccccc2)c(-c2ccccc2)nn(CC(=O)NN)c1=O,191 to 192 °C
22,CCOC(=O)Cc1nsc(NC(=O)c2ccccc2)n1,119 to 120 °C
23,CCCCc1cc2c(=O)n3cc(C(=O)OC)ccc3nc2s1,137 to 138 °C
24,CC1Cc2ccc(Br)cc2C(c2ccc([N+](=O)[O-])cc2)O1 (stereo unspecified),130 to 133 °C
25,NCC1=C(CCC(=O)O)CC=CC1,228 to 229 °C
26,CCOC(=O)Cn1nc(-c2cc(Cl)ccc2O)nc1-c1cc(Cl)ccc1O,195 to 200 °C

row,SMILES,melting point
1,OCCN(CCO)Cc1ccc(-c2cc3ncnc(Nc4ccc5[nH]ccc5c4)c3s2)cc1,110 to 127 °C
2,CCOC(=O)c1cn(C2CC2)c2nc(SCC)ncc2c1=O,138 °C
3,CCc1cnc2c(c1)S(=O)(=O)NC2=O,199 to 201 °C
4,O=c1[nH]c2ncc(-c3ccc(-n4cccn4)cc3)nc2n1CC1CCOCC1,294 to 296 °C
5,CCCCCCCCC=CCCCCCCCC(=O)Cl,73 to 74 °C
6,O=C1OC(=Nc2ccc(Cl)cc2F)C2=C1CCCC2,81 to 84 °C
7,CC(=O)N(c1cccc(Br)c1)c1ncnc2ccc(N3C(=O)C=CC3=O)cc12,174 to 175 °C
8,COc1ccc(N2CCN(CCCCc3ccc(C4CCC(=O)N4)cc3)CC2)cc1 (stereo unspecified),155 to 156 °C
9,O=C1c2c(Cl)cccc2-n2cnc(-c3nnco3)c2[C@@H]2CCN12,264 to 265 °C
10,CC1(C(=O)N2C[C@@H]3C[C@H]2C(=O)O3)CC1,101 to 102 °C
11,O=C(c1cc2c(cc1F)OC(c1ccccc1Cl)(c1ccccc1Cl)O2)N1CCOCC1,98 °C
12,COC(=O)c1ccc(C(=O)c2cccc3ccccc23)n1C,80 °C
13,CC(OCc1cc2cc(C(F)(F)F)ccc2n1S(=O)(=O)c1ccc2c(c1)OCCN2C)C(=O)O (stereo unspecified),118 to 120 °C
14,CN1Cc2c(C#CCO)ncn2-c2ccccc2C1=O,240 to 241 °C
15,O=C1C2=CSCCN2C(=O)N1c1ccc(Cl)cc1F,118 to 120 °C
16,Nc1ccc(C2=NN=C(c3ccccn3)N(C(=O)c3ccccc3)N2)nc1,223 to 225 °C
17,COc1ccccc1N1CCN(CCn2c(=O)[nH]c3ccsc3c2=O)CC1,222 to 223 °C
18,Cc1ccc(S(=O)(=O)OC(c2cccc(C(OS(=O)(=O)c3ccc(C)cc3)(C(F)(F)F)C(F)(F)F)c2)(C(F)(F)F)C(F)(F)F)cc1,131 °C
19,CCCCCC(CC(=O)Nc1cc(C(N)=O)ccc1C(C)(C)C)c1ccc(OCCCOCC)cc1OC (stereo unspecified),135 to 136 °C
20,O=C1c2cc([N+](=O)[O-])ccc2CC2CCCCCN12 (stereo unspecified),118 to 119 °C
21,O=C(c1ccc(Cl)cc1)c1c(CN2CCN(c3ccccc3)CC2)csc1N1C(=O)c2ccccc2C1=O,220 to 222 °C
22,CN(c1cccc2cc(-c3ncc(CCC(=O)NN)s3)[nH]c12)S(=O)(=O)c1cccs1,224 to 226 °C
23,COc1ccc(Br)c(C(=O)N2CCN(S(=O)(=O)c3cccc(F)c3)CC2)c1,145 °C
24,CCCCCCCCCCCCCCCCCCOc1cn(-c2ccc(OCc3ccccc3)cc2)c(CNCCCN(C)C)cc1=O,103 to 109 °C
25,CN(C(=O)Oc1ccc(Cl)c(C(C)(C)C)c1)c1ccc(F)cc1,92 to 94 °C
26,CCOc1c(C#N)oc2c3ccccc3n(-c3ccccc3)c12,121 to 122 °C

row,SMILES,melting point
1,CCOC(=O)c1ccc(CCCC2NC(=O)CS2)c(Cl)c1 (stereo unspecified),81.5 to 82.5 °C
2,COC1CN(c2ccc(N3C[C@H](CO)OC3=O)cc2F)C1,131 to 132 °C
3,CCOc1ccc(C(=O)CBr)cc1C(=O)OC,147 to 148 °C
4,CCNC(=O)OCCCCCCCCC1CC2=C(C1)C(=O)C(OC)=C(OC)C2=O,85 to 86 °C
5,Oc1ccc(CCN2CCC(Cc3nc4c(O)ncnc4n3Cc3ccc(F)cc3)CC2)cc1,216 °C
6,CC(C)[C@H](NC(=O)[C@H](C)NC(=O)OCc1ccccc1)[C@@H](O)c1c(-c2ccccc2)c1=O,156 to 158 °C
7,NC(=O)N1C(=O)C(C(=O)c2ccc(Br)s2)c2cc(Cl)ccc21 (stereo unspecified),228 to 229 °C
8,CCOc1cc(C)ccc1C1CCN(CCCCNC(=O)c2ccc3oc(-c4ccc(Cl)cc4)cc3c2)CC1,145 to 158 °C
9,CCOc1cc(-n2ccnc2)ccc1C#N,134 to 136 °C
10,SCC1SC(CS)SC(CS)S1 (stereo unspecified),42 to 46 °C
11,CC1CCC2(OC1)OC1CC3C4CCC5CC(O[Si](C)(C)C)CCC5(C)C4CCC3(C)C1C2C (stereo unspecified),197 to 198 °C
12,O=C1c2ccccc2CCn2cc(SC(F)(F)F)cc21,77 to 78 °C
13,O=C(Nc1ncnc2c1c(Cl)cn2C1CC(O)C(CO)O1)c1ccccc1 (stereo unspecified),190 °C
14,OC(c1ccccc1)(c1ccc(F)cc1)C1CCNCC1 (stereo unspecified),144 to 146 °C
15,Nc1cccn2c(Cl)cnc12,126 to 127 °C
16,NC(=S)Nc1ccc(Cl)c(Cl)c1Cl,115 to 117 °C
17,CCN(CC)c1ccc(C2(c3ccc(N(CC)CC)cc3N(CC)CC)OC(=O)c3c(Cl)c(Cl)c(Cl)c(Cl)c32)c(C)c1 (stereo unspecified),162 to 164 °C
18,CC(=O)O[C@H]1[C@H](N2CCCNC2=NC#N)c2cc(C#N)ccc2OC1(C)C (relative stereo),245 to 246 °C
19,CC(C)(C)OC(=O)c1cc(Cl)nc(Cl)c1,79 to 81 °C
20,CNC(=O)c1ccccc1Nc1nc(Nc2ccc3c(c2)CN(CCOC)CCS3)ncc1Cl,176 to 177 °C
21,CCOc1ccc(C(=O)CN2CCOCC2)cc1-c1nc2c(C)cccc2c(=O)[nH]1,172 to 173 °C
22,CN(c1cccc(-c2ccnc3c(C(=O)c4cccs4)cnn23)c1)S(C)(=O)=O,169 to 170 °C
23,CCO/C(=C\c1ccc(C#N)cc1)C(=O)O,171 to 172 °C
24,Cn1cc(C(=O)O)c(=O)c2cc(Cl)c(N3CCNCC3)cc21,288 °C
25,CS(=O)(=O)c1cccc(NC(=O)c2cnn3c(C(F)(F)F)cc(-c4ccc(Cl)cc4)nc23)c1,305 °C
26,CCOC(=O)c1cnc(Nc2ccccc2F)[nH]c1=O,250 to 252 °C

row,SMILES,melting point
1,NC(=O)C(O)c1ccsc1 (stereo unspecified),114 to 120 °C
2,NC(Cc1ccc2c(c1)CCC2)=NO,60 °C
3,CC(C)(C)c1cc(OCc2cccc(-c3nnn[nH]3)c2)cc(C(C)(C)C)c1O,163 to 164 °C
4,CC(O)CNCc1nc2cc(-c3ccccc3)nnc2c2ccccc12 (stereo unspecified),161 to 162 °C
5,CC1(C)CC(=O)C2=C(C1)NC1=C(C(=O)CC(C)(C)C1)C2c1ccc(Cl)c(OCc2ccccc2)c1,243 to 244 °C
6,COc1cc(OC)c(-c2cccs2)cc1/C=C/C(=O)c1ccc(S(=O)(=O)Nc2ccc(C(F)(F)F)cn2)cc1,228 to 229 °C
7,CC(=O)NC(Cc1csc2ccccc12)C(=O)C=Cc1cc(C(F)(F)F)cc(C(F)(F)F)c1 (stereo unspecified),172 to 173 °C
8,c1ccc(COc2ccc(Cn3cnc4c(-c5ccco5)ncnc43)cc2)cc1,145 to 146 °C
9,O=C(Nc1ccncc1)c1ccc(C2=NCCN2)cc1,> 250 °C
10,CSC1C(OC(C)=O)C(COC(C)=O)OC1n1ccc(=O)[nH]c1=O (stereo unspecified),132 °C
11,CCn1nc(Cl)c2ccn(-c3ccc(C)cc3C)c2c1=O,94 to 95 °C
12,CCCCc1nc2c(N)nc3ccccc3c2n1CCCC1(C)OCCO1,169 to 172 °C
13,COc1c(O)c(C=O)cc2ccoc12,60 to 62 °C
14,ONCc1cccc(I)c1,63 to 70 °C
15,O=C1N(Cc2ccc(C(F)(F)F)o2)c2ccccc2C12COc1cc(OC(F)(F)F)ccc12 (stereo unspecified),78 to 80 °C
16,O=C1C(Cc2ccccc2)SC(=S)N1c1nccs1 (stereo unspecified),164 to 165 °C
17,COc1cc(Nc2nccc(-c3cccc(Br)c3)n2)cc(OC)c1OC,145 °C
18,O=Cc1ccc2c(c1F)OC(c1ccccc1)(c1ccccc1)O2,92 to 94 °C
19,O=CNc1ccc2[nH]c3cc(-c4ccccc4Cl)c4c(c3c2c1)C(=O)NC4=O,293 to 297 °C
20,CCCn1c(=O)c2c(nc(/C=C/c3cc(OC(C)=O)cc(OC(C)=O)c3)n2C)n(CCC)c1=O,224 to 225 °C
21,Cc1nc(-c2cccc(I)c2)no1,90 to 91.5 °C
22,CCOC(=O)c1ccc(N=CN(C)c2ccc(C(=O)OCC)cc2)cc1,89 to 91 °C
23,O=C(c1ccccc1)C(O)CCl (stereo unspecified),42 to 45 °C
